The test concerns the target T1, TXNRD1 (Homo sapiens, UniProt Q16881).
T1 construct: endogenous in cells; host or cells: H460
Description: isoTOP-ABPP of compound-treated H460 cells: TXNRD1. Type of test: cell-based. The conditions noted are these: TXNRD1 U648; 40 μM. As for the experimental part: For analysis of NR0B1 ligands or control compound reactivity, H460 cells or H460 cells expressing luciferase in a 10 cm plate were incubated with indicated compounds in serum/dye-free RPMI for 3 hours at 37° C. Cells were washed once ice-cold PBS and lysed in 1% Triton X-100 dissolved in PBS with protease inhibitors (Sigma) by sonication. Samples were clarified by centrifugation for 10 min at 16,000×g. Lysate was adjusted to 1.5 mg ml^−1 in 500 μL.
Samples were labeled for 1 h at ambient temperature with 100 μM iodoacetamide alkyne (1, IA-alkyne, 5 μL of 10 mM stock in DMSO). Samples were conjugated by copper-catalyzed azide-alkyne cycloaddition (CuAAC) to isotopically labeled, TEV-cleavable tags (TEV-tags). Heavy CuAAC reaction mixtures was added to the DMSO-treated or shGFP control samples and light CuAAC reaction mixture was added to compound-treated or shNRF2 samples. The CuAAC reaction mixture consisted of TEV tags (light or heavy, 10 μL of 5 mM stocks in DMSO, final concentration=100 μM), 1 mM tris(2-carboxyethyl)phosphine hydrochloride (TCEP; fresh 50× stock in water, final concentration=1 mM), ligand (17× stock in DMSO:t-butanol 1:4, final concentration=100 μM) and 1 mM CuSO4 (50× stock in water, final concentration=1 mM). The samples were allowed to react for 1 h at which point the samples were centrifuged (16,000×g, 5 min, 4° C.). […]

T1 sequence (Q16881 whole entry): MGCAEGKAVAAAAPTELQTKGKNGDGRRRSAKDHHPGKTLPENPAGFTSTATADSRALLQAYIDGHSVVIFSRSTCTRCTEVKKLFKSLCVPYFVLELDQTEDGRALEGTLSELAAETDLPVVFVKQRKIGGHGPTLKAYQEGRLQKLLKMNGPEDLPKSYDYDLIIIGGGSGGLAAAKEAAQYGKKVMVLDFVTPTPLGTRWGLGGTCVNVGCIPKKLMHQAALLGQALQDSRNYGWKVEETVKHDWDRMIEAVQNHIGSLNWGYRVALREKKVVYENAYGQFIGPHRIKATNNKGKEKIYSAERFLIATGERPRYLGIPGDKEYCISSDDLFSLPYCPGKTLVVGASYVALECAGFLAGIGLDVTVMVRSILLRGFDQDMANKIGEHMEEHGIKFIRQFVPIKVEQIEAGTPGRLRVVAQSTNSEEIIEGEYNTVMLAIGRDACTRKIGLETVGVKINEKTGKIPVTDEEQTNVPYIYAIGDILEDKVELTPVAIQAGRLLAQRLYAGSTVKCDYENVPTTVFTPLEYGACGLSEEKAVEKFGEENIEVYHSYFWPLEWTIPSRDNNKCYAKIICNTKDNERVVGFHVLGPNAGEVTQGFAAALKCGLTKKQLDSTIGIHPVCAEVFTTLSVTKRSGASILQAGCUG

As for `O=C(c1ccc(N2CCOCC2)cc1)N1CCCC(N(Cc2ccccc2)C(=O)CCl)CC1` (stereo not shown) [BPK-29, N-benzyl-2-chloro-N-(1-(4-morpholinobenzoyl)azepan-4-yl)acetamide], the “BPK-29-competed isoTOP-ABPP analysis” value is given as “Yes (Competed defined as showing R value ≥ 3.0 at 40 μM of test compound)”.

For the origin of these results see US20200278355A1, “CONJUGATED PROTEINS AND USES THEREOF” (THE SCRIPPS RESEARCH INSTITUTE, priority 2017, published 2020).
